Test results as given in publication PMC3977535, “Design and Synthesis of New Dual Binding Site Cholinesterase Inhibitors: in vitro Inhibition Studies with in silico Docking” (Letters in Drug Design & Discovery, 2014).
Where two headings read alike, the source gives them in different places.

Columns and labels:
BChE = target: T1, BChE (Homo sapiens, UniProt P06276); experiment: BChE inhibition assay (Ellman method with slight modifications); format: biochemical; settings: for inhibition at 500 µM: read-out: BChE Inhibition, Inhibition (%) at 0.5 mM
T1 construct: purchased Sigma Inc
Procedure: (§1) The AChE and BChE inhibition activity was performed according to the method of Ellman with slight modifications. Total volume of the reaction mixture was 100 µL contained 60 µL Na2HPO4 buffer with concentration of 50 mM and pH 7.7. A 10 µL test compound (0.5 mM per well) was added, followed by the addition of 10 µL enzyme (0.005 unit AChE, 0.5 unit BChE per well, Sigma Inc). […] The reaction was initiated by the addition of 10 µL of 0.5 mM per well substrate (acetylthiocholine iodide or butyrylthiocholine bromide), followed by the addition of 10 µL DTNB (0.5 mM per well). […] Synergy HT (BioTek, USA) 96-well plate reader was used in all experiments. All experiments were carried out with their respective controls in triplicate. […] The percent inhibition was calculated by the help of following equation.
(§2) Inhibition%=Control−Test/Control×100

AChE = target: T2, AChE (Homo sapiens, UniProt P22303); experiment: biochemical; format: biochemical; settings: for inhibition at 500 µM: read-out: AChE Inhibition, Inhibition (%) at 0.5 mM
T2 construct: purchased Sigma Inc
Procedure: as §1, §2

[1] = 0.5 mM test compound, mean with SEM
[2] = mean with SEM, read-out: BChE Inhibition, IC50
[3] = mean with SEM, read-out: AChE Inhibition, IC50

T2 sequence (P22303 32-614): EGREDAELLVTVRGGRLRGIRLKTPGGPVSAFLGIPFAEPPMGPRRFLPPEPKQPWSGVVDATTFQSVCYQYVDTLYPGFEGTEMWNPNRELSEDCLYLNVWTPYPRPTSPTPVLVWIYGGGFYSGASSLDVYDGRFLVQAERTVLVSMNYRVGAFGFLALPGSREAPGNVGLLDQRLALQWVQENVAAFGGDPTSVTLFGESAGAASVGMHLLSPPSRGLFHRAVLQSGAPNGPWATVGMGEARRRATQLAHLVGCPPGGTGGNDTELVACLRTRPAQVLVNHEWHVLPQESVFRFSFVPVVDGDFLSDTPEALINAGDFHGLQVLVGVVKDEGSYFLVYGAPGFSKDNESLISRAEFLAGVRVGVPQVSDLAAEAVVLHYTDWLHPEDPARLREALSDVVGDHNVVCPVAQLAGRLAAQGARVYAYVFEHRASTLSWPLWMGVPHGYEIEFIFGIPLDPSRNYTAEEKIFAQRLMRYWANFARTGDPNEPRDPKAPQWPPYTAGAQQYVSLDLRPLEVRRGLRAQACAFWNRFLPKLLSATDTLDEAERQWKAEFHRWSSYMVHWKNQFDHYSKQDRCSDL
T1 sequence (P06276 29-602): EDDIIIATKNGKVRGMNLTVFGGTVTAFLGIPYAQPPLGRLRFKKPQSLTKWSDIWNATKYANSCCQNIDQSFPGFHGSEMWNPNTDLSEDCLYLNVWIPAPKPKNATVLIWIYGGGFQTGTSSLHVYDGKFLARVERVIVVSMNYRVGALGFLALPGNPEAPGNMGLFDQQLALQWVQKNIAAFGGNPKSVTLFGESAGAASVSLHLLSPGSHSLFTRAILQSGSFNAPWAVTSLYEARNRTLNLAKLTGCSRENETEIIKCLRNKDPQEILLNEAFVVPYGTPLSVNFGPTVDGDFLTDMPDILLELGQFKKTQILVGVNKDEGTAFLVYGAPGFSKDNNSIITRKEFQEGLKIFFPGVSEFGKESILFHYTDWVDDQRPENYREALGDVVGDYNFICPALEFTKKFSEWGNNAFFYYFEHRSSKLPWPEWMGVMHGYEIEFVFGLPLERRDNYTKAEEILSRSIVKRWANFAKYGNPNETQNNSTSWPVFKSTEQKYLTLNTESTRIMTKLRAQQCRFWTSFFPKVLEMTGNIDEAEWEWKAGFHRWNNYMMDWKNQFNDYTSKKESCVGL

| SMILES | inhibition at 500 µM (BChE; [1]) | IC50 (BChE; [2]) | inhibition at 500 µM (AChE; [1]) | IC50 (AChE; [3]) | IC50 (BChE) | inhibition at 500 µM (BChE) | IC50 (AChE) | inhibition at 500 µM (AChE) | inhibitory activity against BChE (in words) (BChE) | inhibitory activity against AChE (in words) (AChE) |
| --- | --- | --- | --- | --- | --- | --- | --- | --- | --- | --- |
| COC(=O)Cc1c[nH]c2ccccc12 [Compound 2] | 59.82 ± 0.15% | 184.2 ± 0.21 µM | 70.61 ± 0.34% | 138.5 ± 0.21 µM | – | – | – | – | – | – |
| NNC(=O)Cc1c[nH]c2ccccc12 [Compound 3] | – | – | – | – | 139.21 ± 0.07 µM | 73.95 ± 0.67% | 152.11 ± 0.07 µM | 69.16 ± 0.25% | – | – |
| O=C(Cc1c[nH]c2ccccc12)N/N=C/c1ccccc1 [Compound 4a] | 79.58 ± 0.42% | 86.31 ± 0.14 µM | 63.11 ± 0.52% | 198.61 ± 0.14 µM | – | – | – | – | – | – |
| O=C(Cc1c[nH]c2ccccc12)N/N=C/c1ccccc1O [Compound 4b] | 43.16 ± 0.18% | – | 75.5 ± 0.33% | 103.11 ± 0.05 µM | – | – | – | – | weak | – |
| COc1ccc(/C=N/NC(=O)Cc2c[nH]c3ccccc23)cc1 [Compound 4c] | 50.2 ± 0.69% | – | 75.5 ± 0.56% | 109.6 ± 0.11 µM | – | – | – | – | – | – |
| Cc1ccc(/C=N/NC(=O)Cc2c[nH]c3ccccc23)cc1 [Compound 4d] | 43.6 ± 0.55% | – | 79.54 ± 0.54% | 98.81 ± 0.14 µM | – | – | – | – | weak | – |
| C/C(=N\NC(=O)Cc1c[nH]c2ccccc12)c1ccccc1 [Compound 4e] | 68.43 ± 0.18% | 146.21 ± 0.08 µM | 66.86 ± 0.36% | 174.51 ± 0.11 µM | – | – | – | – | – | – |
| O=C(Cc1c[nH]c2ccccc12)NN=C(c1ccccc1)c1ccccc1 [Compound 4f] | 89.51 ± 0.69% | 59.81 ± 0.06 µM | 89.3 ± 0.91% | 91.21 ± 0.06 µM | – | – | – | – | – | – |
| O=C(Cc1c[nH]c2ccccc12)N/N=C/c1ccc(Cl)cc1 [Compound 4g] | 30.1 ± 0.58% | – | 75.79 ± 0.25% | 106.51 ± 0.07 µM | – | – | – | – | – | – |
| CC(=O)NNC(=O)Cc1c[nH]c2ccccc12 [Compound 5a, N'-acetyl-2-(1H-indol-3-yl)acetohydrazide] | 90.81 ± 0.69% | 55.21 ± 0.12 µM | 60.52 ± 0.25% | 298.61 ± 0.15 µM | – | – | – | – | – | – |
| O=C(Cc1c[nH]c2ccccc12)NNC(=O)C(F)(F)F [Compound 5b, N'-(2-(1H-indol-3-yl)acetyl)-2,2,2-trifluoroacetohydrazide] | 86.64 ± 0.24% | 68.91 ± 0.07 µM | 75.22 ± 0.41% | 152.31 ± 0.07 µM | – | – | – | – | – | – |
| O=C(Cc1c[nH]c2ccccc12)NNC(=O)Oc1ccccc1 [Compound 5c, Phenyl 2-(2-(1H-indol-3-yl)acetyl)hydrazinecarboxylate] | – | – | – | – | – | 39.29 ± 0.25% | – | 55.91 ± 0.33% | weak | weak |
| Cc1ccc(S(=O)(=O)NNC(=O)Cc2c[nH]c3ccccc23)cc1 [Compound 6a, N'-(2-(1H-Indol-3-yl)acetyl)-4-methylbenzenesulfonohydrazide] | 72.52 ± 0.33% | 101.2 ± 0.16 µM | 78.11 ± 0.36% | 121.4 ± 0.16 µM | – | – | – | – | – | – |
| O=C(Cc1c[nH]c2ccccc12)NNS(=O)(=O)c1ccccc1[N+](=O)[O-] [Compound 6b, N'-(2-(1H-Indol-3-yl)acetyl)-2-nitrobenzenesulfonohydrazide] | 42.61 ± 0.42% | – | 46.41 ± 0.21% | – | – | – | – | – | weak | weak |
| O=C(Cc1c[nH]c2ccccc12)NNS(=O)(=O)c1cccc([N+](=O)[O-])c1 [Compound 6c, N'-(2-(1H-Indol-3-yl)acetyl)-3-nitrobenzenesulfonohydrazide] | 81.24 ± 0.52% | 78.51 ± 0.21 µM | 56.21 ± 0.25% | – | – | – | – | – | – | weak |
| O=C(Cc1c[nH]c2ccccc12)NNS(=O)(=O)c1ccc([N+](=O)[O-])cc1 [Compound 6d, N'-(2-(1H-Indol-3-yl)acetyl)-4-nitrobenzenesulfonohydrazide] | 63.69 ± 0.61% | < 400 µM | 58.62 ± 0.52% | – | – | – | – | – | – | weak |
| O=C(Cc1c[nH]c2ccccc12)NNS(=O)(=O)c1ccc(Br)cc1 [Compound 6e, N'-(2-(1H-indol-3-yl)acetyl)-4-bromobenzenesulfonohydrazide] | 81.02 ± 0.14% | 73.52 ± 0.04 µM | 90.78 ± 0.32% | 68.52 ± 0.04 µM | – | – | – | – | – | – |
